Experimental data from patent US9862730B2, “Imidazothiadiazole derivatives as protease activated receptor 4 (PAR4) inhibitors for treating platelet aggregation” (BRISTOL-MYERS SQUIBB COMPANY, priority 2012, dated 2018).
Read-outs that look alike come from different tables or passages of the source.

Tests used:
[1] = ACS patients, phase III; cited from earlier work
[2] = target: T1, PAR4 (Homo sapiens (Human), UniProt Q96RI0); assay: FLIPR assay in PAR4-expressing HEK293 cells (PAR4 antagonist activity, calcium mobilization); format: cell-based; details: FLIPR assay as described in Example A
Outline: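 Calcium-flux antagonist readout: compounds preincubated 30 min at room temperature with PAR4-transfected HEK293 cells in HBSS with 10 mM HEPES (0.67% DMSO final), then agonist peptide added. Agonist activity checked on compound addition; cells carry endogenous PAR1.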

[3] = system: platelet aggregation in human PRP; assay: Tissue factor-induced platelet aggregation assay; format: cell-based; details: tissue factor and CaCl2
From the text: Example E is a tissue factor-induced platelet aggregation assay. The conditions in this assay mimic the physiological events during thrombus formation. In this assay, platelet aggregation in human PRP was initiated by the addition of tissue factor and CaCl2. Tissue factor, the initiator of the extrinsic coagulation cascade, is highly elevated in human atherosclerotic plaque. Exposure of blood to tissue factor at the atherosclerotic site triggers a robust generation of thrombin and induces the formation of obstructive thrombi.
(§1) The platelet rich plasma was isolated by centrifugation at 170 g for 14 minutes.
The ability of PAR1 or PAR4 antagonist to inhibit platelet aggregation induced by endogenous thrombin was tested in a tissue factor driven aggregation assay. The compounds were pre-incubated with PRP for 2 min (FIGS. 3 and 4). Aggregation is initiated by addition of CaCl2 and recombinant human tissue factor, which results in the generation of thrombin through activation of the coagulation pathway in the plasma. Anticoagulant agents such as corn trypsin inhibitor (Haematologic Technologies, Essex Junction, Vt.) at 50 μg/ml and PEFABLOC® FG (Centerchem, Norwalk, Conn.) are also added to the sample to prevent fibrin clot formation during the time of the study. Platelet aggregation is monitored using standard instrumentation including optical aggregometer or impedance aggregometer.

[4] = system: electrolytic injury-induced carotid artery thrombosis; assay: Cynomolgus monkey electrolytic injury-induced carotid artery thrombosis model; format: in vivo; details: oral, dose response
From the text: The efficacy of the PAR4 antagonists of the present invention in preventing thrombosis can also be measured in a variety of in vivo assays. Exemplary mammals that can provide models of thrombosis and hemostasis to test the effectiveness of the PAR4 antagonists of the present invention as antithrombotic agents include, but are not limited to, guinea pigs and primates. Relevant efficacy models include, but are not limited to, electrolytic injury-induced carotid artery thrombosis, FeCl3-induced carotid artery thrombosis and arteriovenous-shunt thrombosis. […]
On the day of the study, compounds or vehicles were administered orally at 1 to 2 hours before the experiment. […] Blood pressure and heart rate were monitored to maintain normal vital signs.
Carotid blood flow was measured with an appropriately sized TRANSONIC® flow probe and a TRANSONIC® perivascular flowmeter (TS420 Model, Transonic Systems Inc., Ithaca, N.Y.). It was continuously recorded over a 90-min period to monitor thrombosis-induced occlusion. Integrated carotid blood flow was measured by the area under the flow-time curve. It was expressed as percent of total control carotid blood flow, which would result if control blood flow had been maintained continuously for 90 min. […]

[5] = target: T1, PAR4; assay: Gamma thrombin induced platelet aggregation assay in PRP (PRP assay); format: cell-based
From the text: The compounds of the current invention can be tested in vitro for their ability to inhibit platelet aggregation induced by gamma-thrombin as shown in Example C. Gamma-thrombin, a proteolytic product of alpha-thrombin which no longer interacts with PAR1, selectively cleaves and activates PAR4 (Soslau, G. et al., “Unique pathway of thrombin-induced platelet aggregation mediated by glycoprotein Ib”, J. Biol. Chem., 276:21173-21183 (2001)). Platelet aggregation can be monitored in a 96-well microplate aggregation assay format or using standard platelet aggregometer. The aggregation assay can also be employed to test the selectivity of the compound for inhibiting platelet aggregation induced by PAR4 agonist peptides, PAR1 agonist peptide, ADP, or thromboxane analogue U46619.
as §1
The ability of the compounds of the current invention to inhibit platelet aggregation induced by gamma-thrombin was tested in a 96-well microplate aggregation assay format. Briefly, PRP or washed platelet suspension (100 μl) was pre-incubated for 5 minutes at room temperature with varying concentrations of compounds. Aggregation was initiated by ˜10-50 nM gamma thrombin (Haematologic Technologies, Essex Junction, Vt.), which was titrated daily to achieve 80% platelet aggregation. Refludan at 1 U/mL (Berlex, Montville, N.J.) was added to the gamma thrombin sample to prevent PAR1 activation induced by residual alpha-thrombin contamination. The plate was then placed into a 37° C. Molecular Devices (Sunnyvale, Calif.) SPECTRAMAX® Plus Plate Reader. […] Data was collected with SOFTMAX® 4.71 software. The plate also included an untreated control sample which served as ODmax, while buffer containing no platelets was the ODmin. Platelet aggregation was determined by subtracting the ODmax from the ODmin for the 100% aggregation value. In experimental samples, the observed transmission was subtracted from the minimum value and then compared to the 100% aggregation value to determine the percentage aggregation. IC50 values are determined using Excel Fit software.
As indicated above, the PRP assay, an in vitro assay, measures the PAR4 antagonist activity of compounds tested as described in Example C.

[6] = system: human washed platelets; assay: Alpha-thrombin induced platelet aggregation assay; format: cell-based; details: for IC50: Homo sapiens, Platelet, 0.1 h, AUC at 6 min, read-out: IC50 for the inhibition of platelet aggregation
Description: Example D is an alpha-thrombin-induced platelet aggregation assay. Alpha-thrombin activates both PAR1 and PAR4.
Human blood was collected in ACD (85 mM tri-sodium citrate, 78 mM citric acid, 110 mM D-glucose, pH 4.4) at a ratio of 1.4 ml per 10 ml blood. PRP was isolated by centrifugation at 170 g for 14 minutes and platelets were further pelleted by centrifugation at 1300 g for 6 minutes. Platelets were washed once with 10 ml ACD containing 1 mg/ml bovine serum albumin. Platelets were resuspended at ˜2.5×10^8/ml in Tyrode's Buffer (137 mM NaCl, 2 mM KCl, 1.0 mM MgCl2, 1 mM CaCl2, 5 mM glucose, 20 mM HEPES pH 7.4).
The ability of PAR4 antagonist to inhibit platelet aggregation induced by alpha-thrombin was tested using human washed platelets. […] Aggregation was initiated by addition of 2.5 or 5 nM alpha-thrombin (Haematologic Technologies, Essex Junction, Vt.) to 240 μl of washed platelets at stirring speed of 1200 rpm. […] IC50 was calculated using vehicle control as 0% inhibition.

T1 sequence (Q96RI0 18-385): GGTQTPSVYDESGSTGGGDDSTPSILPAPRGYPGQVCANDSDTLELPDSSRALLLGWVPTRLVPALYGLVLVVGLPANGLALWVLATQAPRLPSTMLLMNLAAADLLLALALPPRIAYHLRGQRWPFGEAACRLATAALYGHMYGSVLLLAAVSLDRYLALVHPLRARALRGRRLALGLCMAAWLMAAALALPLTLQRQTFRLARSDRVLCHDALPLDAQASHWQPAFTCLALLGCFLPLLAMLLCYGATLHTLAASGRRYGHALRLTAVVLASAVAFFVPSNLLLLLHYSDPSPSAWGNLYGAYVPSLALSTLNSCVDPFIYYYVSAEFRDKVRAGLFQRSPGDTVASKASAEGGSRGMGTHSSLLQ

Structure (SMILES)	IC50 [2]	IC50 [5]	other results
CCOC(=O)N[C@@H]1CC[C@@H]2[C@@H](C1)C[C@H]1C(=O)O[C@H](C)[C@H]1[C@H]2/C=C/c1ccc(-c2cccc(F)c2)cn1 [vorapaxar]			cardiovascular events [1]: did not significantly reduce cardiovascular events; risk of major bleeding [1]: significantly increased the risk of major bleeding
COc1cc(OC)c2cc(-c3cn4nc(OC)sc4n3)oc2c1 [Example 73]	0.99 nM		inhibition of tissue factor-induced platelet aggregation (FIGS. 3 and 4) [3]: effective inhibition
COc1cc(OCc2cccc(OCc3ccccc3)c2)c2cc(-c3cn4nc(OC)sc4n3)oc2c1 [Example 205, 6-(4-((3-(Benzyloxy)benzyl)oxy)-6-methoxybenzofuran-2-yl)-2-methoxyimidazo[2,1-b][1,3,4]thiadiazole]			antithrombotic efficacy / inhibition of thrombus formation (FIG. 5) [4]: demonstrating the in vivo antithrombotic efficacy
COc1cc(OCc2cccc(OCc3ccc(F)c(F)c3F)c2)c2cc(-c3cn4nc(OC)sc4n3)oc2c1 [Example 325]	1.64 nM	86.2 nM	
COc1cc(OCc2cccc(OCc3cccc(C)c3)c2)c2cc(-c3cn4nc(OC)sc4n3)oc2c1 [Example 386]	1.77 nM	55 nM	
CSc1nn2cc(-c3nc4c(OC[C@@H]5CCCN5C(=O)[C@H](NC(=O)c5ccccc5)c5ccccc5)cccc4o3)nc2s1 [Example 337, N—((R)-2-((S)-2-(((2-(2-(Methylthio)imidazo[2,1-b][1,3,4]thiadiazol-6-yl)benzo[d]oxazol-4-yl)oxy)methyl)pyrrolidin-1-yl)-2-oxo-1-phenylethyl)benzamide]	401 nM	> 30000 nM	
COc1cc(OCc2cccc(OCc3cccc(C(F)(F)F)c3F)c2)c2cc(-c3cn4nc(OC)sc4n3)oc2c1 [Example 316]	4.17 nM	93.3 nM	
CSc1nn2cc(-c3nc4c(OC(C)C)cccc4o3)nc2s1 [Example 159]	28.4 nM	> 30000 nM	
COc1cc(OCc2cccc(OCc3ccccc3F)c2)c2cc(-c3cn4nc(OC)sc4n3)oc2c1 [Example 318]	1.92 nM	36.5 nM	
COc1cc(OCc2ccc(F)cc2)c2cc(-c3cn4nc(SC)sc4n3)oc2c1 [Example 301]	23 nM	2960 nM	
COc1cc(OCc2ccccc2)c2cc(-c3cn4nc(OC)sc4n3)oc2c1 [Example 203, 6-(4-(Benzyloxy)-6-methoxybenzofuran-2-yl)-2-methoxyimidazo[2,1-b][1,3,4]thiadiazole]			inhibition of alpha-thrombin-induced platelet aggregation (FIG. 2) ([6]; 5 nM alpha-thrombin): dose-dependent inhibition; IC50 ([6]; 5 nM alpha-thrombin, n=3): 6900 ± 300 nM; IC50 ([6]; […] alpha-thrombin, n=4): 1100 ± 900 nM
COc1cc(OCc2cccc(OCc3ccnc(Cl)c3)c2)c2cc(-c3cn4nc(OC)sc4n3)oc2c1 [Example 320]	3.93 nM	75.5 nM	
CCc1nn2cc(-c3nc4ccc(OC)cc4o3)nc2s1 [Example 39]	220 nM	> 30000 nM	
COc1cc(OCc2cccc(OCc3ccccc3C)c2)c2cc(-c3cn4nc(OC)sc4n3)oc2c1 [Example 363]	2.42 nM	38.3 nM	
COc1ccc2oc(-c3cn4nc(SC)sc4n3)cc2c1 [Example 16]	369 nM	> 30000 nM	
CCOc1nn2cc(-c3nc4ccccc4s3)nc2s1 [Example 27]	1780 nM	> 30000 nM	
COc1cc(OCc2ccc(F)cc2)c2cc(-c3cn4nc(Br)sc4n3)oc2c1 [Example 302]	195 nM	> 30000 nM	
COc1cc(COc2cc(OC)cc3oc(-c4cn5nc(OC)sc5n4)cc23)cc(OCc2ccccc2)c1 [Example 404]	2.44 nM	22.5 nM	
COc1cc(OCc2ccc(F)cc2)c2cc(-c3cn4nc(C(C)(F)F)sc4n3)oc2c1 [Example 304]	55.6 nM	> 30000 nM	
